The assay concerns the target T1, LHRH (Rattus norvegicus, UniProt P30969).
T1 construct: endogenous in cells
T1 sequence (P30969 1-327): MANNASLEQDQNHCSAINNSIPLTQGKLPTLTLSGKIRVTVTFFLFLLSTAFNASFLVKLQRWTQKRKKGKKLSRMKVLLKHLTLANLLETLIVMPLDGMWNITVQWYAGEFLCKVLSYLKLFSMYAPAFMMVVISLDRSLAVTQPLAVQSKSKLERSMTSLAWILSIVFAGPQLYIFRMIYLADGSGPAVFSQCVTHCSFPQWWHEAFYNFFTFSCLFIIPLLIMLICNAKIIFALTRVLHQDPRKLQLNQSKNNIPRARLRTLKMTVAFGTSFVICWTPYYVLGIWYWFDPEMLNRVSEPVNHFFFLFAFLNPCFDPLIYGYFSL
The experiment in a line: in vitro test for LHRH antagonist potency (pA2). The class given is cell-based. As to conditions: negative logarithm of the antagonist concentration required to shift the response curve produced by the agonist leuprolide to two-fold higher concentration. As to the method: Representative compounds of the present invention were evaluated in an in vitro test for LHRH antagonist potency (pA2). The test employed the method detailed in F. Haviv, et al. J. Med. Chem., 32:2340-2344 (1989). The values of pA2 are the negative logarithms of the concentration of the particular antagonist test compound required to shift the response curve produced by the agonist leuprolide to two-fold higher concentration. (Leuprolide is disclosed and claimed in U.S. Pat. No. 4,005,063.) Typically pA2 values of 9.5 or greater are indicative of good LHRH antagonist potency, with values of 10.0 or greater being preferred.

The results in this text go back to US5516759A, “LHRH antagonists having lactam groups at the N-terminus” (TAP Holdings Inc., priority 1994, dated 1996).

Where a SMILES comes first, the peptide text is derived from it. [ ]: non-standard residue; d: D form. The star is where a group is joined. Acetyl(2-oxopyrrolidin-1-yl) = O=C1CCCN1CC(=O)*; dPhe(4-Cl) = N[C@H](Cc1ccc(Cl)cc1)C(=O)O; d1Nal = N[C@H](Cc1cccc2ccccc12)C(=O)O; NMeY = CN[C@@H](Cc1ccc(O)cc1)C(=O)O; dCit = NC(=O)NCCC[C@@H](N)C(=O)O

Broadly, the Kb is the affinity of an antagonist, worked out from how it opposes an agonist.

Turning to `CC(C)C[C@H](NC(=O)[C@@H](CCCNC(N)=O)NC(=O)[C@H](Cc1ccc(O)cc1)N(C)C(=O)[C@H](CO)NC(=O)[C@@H](Cc1cccc2ccccc12)NC(=O)[C@@H](Cc1ccc(Cl)cc1)NC(=O)CN1CCCC1=O)C(=O)N[C@@H](CCCNC(=N)N)C(=O)N1CCC[C@H]1C(=O)N[C@H](C)C(N)=O` [Example 14, 5LactGly^1 -D4ClPhe^2 -D1Nal^3 -Ser^4 -NMeTyr^5 -DCit^6 -Leu^7 -Arg^8 -Pro^9 -DAla^10 NH2] ({Acetyl(2-oxopyrrolidin-1-yl)}-[dPhe(4-Cl)][d1Nal]S[NMeY][dCit]LRP[dA]-NH2), the antagonist dissociation constant (Kb) is 0.0178 nM.
